This note sets out measurements from patent US20080269213A1, “8-Hydroxyquinoline compounds and methods thereof” (Wyeth, priority 2006, published 2008).

pIC50: −log10 of the molar value. Where two headings read alike, the source gives them in different places.

The target in experiment [1] is T1, Agg-1 (Homo sapiens, UniProt O75173).
T1 sequence (O75173 213-837): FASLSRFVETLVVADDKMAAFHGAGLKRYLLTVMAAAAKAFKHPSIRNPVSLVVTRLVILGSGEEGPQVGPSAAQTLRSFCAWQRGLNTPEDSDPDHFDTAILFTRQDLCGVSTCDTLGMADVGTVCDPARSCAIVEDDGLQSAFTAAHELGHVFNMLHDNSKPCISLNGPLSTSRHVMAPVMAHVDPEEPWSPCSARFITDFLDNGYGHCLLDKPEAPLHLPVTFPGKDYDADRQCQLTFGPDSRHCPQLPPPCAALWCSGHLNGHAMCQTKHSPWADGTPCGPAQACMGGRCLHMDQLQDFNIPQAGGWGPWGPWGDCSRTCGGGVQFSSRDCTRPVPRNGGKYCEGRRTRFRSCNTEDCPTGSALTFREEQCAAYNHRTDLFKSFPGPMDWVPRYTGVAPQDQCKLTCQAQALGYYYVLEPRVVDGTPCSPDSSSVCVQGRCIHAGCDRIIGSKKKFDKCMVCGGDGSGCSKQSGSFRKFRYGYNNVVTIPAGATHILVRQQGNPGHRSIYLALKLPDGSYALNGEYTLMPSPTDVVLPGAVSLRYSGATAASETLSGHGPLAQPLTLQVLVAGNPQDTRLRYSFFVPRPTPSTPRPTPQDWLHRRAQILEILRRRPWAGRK
Nature of the experiment: Agg-1 FRET assay. Type of experiment: biochemical. To be noted: for inhibition at 0.8 µM: @ 800 nM; for pIC50: read-out: Agg1 IC50; for inhibition at 22 µM: @ 22000 nM. From the text:
The Agg-1/Agg-2 FRET data for N-[(8-hydroxyquinolin-2-yl)(phenyl)methyl]-2-phenoxyacetamide and 2-{[(phenoxyacetyl)amino](phenyl)methyl}quinolin-8-yl phenoxyacetate is presented in Table 1.

Experiment [2] addresses T2, recombinant human Aggrecanase-2 Agg2-Phe628 (Homo sapiens, UniProt Q9UNA0).
T2 sequence (Q9UNA0 262-628 limits assumed): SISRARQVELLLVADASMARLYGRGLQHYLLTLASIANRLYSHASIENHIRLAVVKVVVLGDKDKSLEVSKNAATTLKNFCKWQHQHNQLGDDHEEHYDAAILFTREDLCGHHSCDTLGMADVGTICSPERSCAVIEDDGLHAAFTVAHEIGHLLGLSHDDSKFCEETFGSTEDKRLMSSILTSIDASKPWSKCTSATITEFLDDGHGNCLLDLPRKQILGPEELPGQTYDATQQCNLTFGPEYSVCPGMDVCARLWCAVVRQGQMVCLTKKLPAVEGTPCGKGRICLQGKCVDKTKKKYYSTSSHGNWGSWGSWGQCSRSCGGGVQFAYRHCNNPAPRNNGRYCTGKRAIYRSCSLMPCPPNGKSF
The experiment is described as follows: Aggrecanase 2 in vitro enzyme assay (Agg-2 FRET, quenched fluorescent peptide substrate). Format: biochemical. Also noted: purified recombinant human Aggrecanase-2 Agg2-Phe628 (MW=41,737); This is a truncated form of full-length human aggrecanase-2; made in house; host or cells: CHO cells. To be noted: for Agg-2 FRET Median PCT INHIB: concentration not given. The essentials:
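Continuous FRET assay with purified truncated human Aggrecanase-2 Agg2-Phe628 (CHO-expressed, 0.5 μg/ml final) and brevican-derived Abz/Dnp peptide (25 μM final) in 50 mM HEPES pH 7.5, 100 mM NaCl, 5 mM CaCl2, 0.1% CHAPS, 5% glycerol. Enzyme preincubated with compound before substrate; fluorescence (ex 340/em 420 nm) followed kinetically 40 min at 30 °C.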

Setting [3] is: read-out: Agg-2 FRET Median IC50.

As to `O=C(COc1ccccc1)NC(c1cc(Cl)c2cccnc2c1O)c1cccc2[nH]ccc12` (stereo not drawn) [N-[(5-chloro-8-hydroxyquinolin-7-yl)(1H-indol-4-yl)methyl]-2-phenoxyacetamide], in experiment [1] (read-out: Agg1 %), the inhibition at 0.8 µM was determined as 41%. For the same compound, the pIC50 in experiment [2] (read-out: Agg2 IC50) and in experiment [2] (setting [3]) was 5.68 throughout.

Regarding `O=C(COc1ccccc1)NC(C1=CCCCC1)c1cc(Cl)c2cccnc2c1O` (stereo not drawn) [N-[(5-chloro-8-hydroxyquinolin-7-yl)(cyclohex-1-en-1-yl)methyl]-2-phenoxyacetamide], the negative logarithm of the IC50 (pIC50) (in general, the IC50 on a negative log10 scale, so that one unit is a factor of ten) in experiment [1] was 5.10 to 6.00. Moreover, the inhibition at […] in experiment [2] (@ 1900 nM) was determined as 42%.

Consider `O=C(NC(c1ccccn1)c1cc(Cl)c2cccnc2c1O)OCc1ccccc1` (stereo not drawn) [Example 183, benzyl [(5-chloro-8-hydroxyquinolin-7-yl)(pyridin-2-yl)methyl]carbamate], for which the results for the pIC50 in experiment [1] and in experiment [2] (read-out: Agg2 IC50) were under 4.17 and about 5.60, respectively. In experiment [2], the “Agg-2 FRET Median PCT INHIB” value came to 50%.

As to `CN(C)c1ccc(C(NC(=O)COc2ccccc2)c2cc(Cl)c3cccnc3c2O)cc1` (stereo not drawn) [Example 134, N-{(5-chloro-8-hydroxyquinolin-7-yl)[4-(dimethylamino)phenyl]methyl}-2-phenoxyacetamide], the inhibition at […] in experiment [1] (@ 2500 nM, read-out: Agg1 %) came out at 54%. Further, the negative logarithm of the IC50 (pIC50) in experiment [2] (read-out: Agg2 IC50) is 5.78.

For `CCCCOc1ccc(C(NC(=O)COc2ccccc2)c2cc(Cl)c3cccnc3c2O)cc1` (stereo not drawn) [N-[(4-butoxyphenyl)(5-chloro-8-hydroxyquinolin-7-yl)methyl]-2-phenoxyacetamide], the inhibition at 67 µM in experiment [1] (@ 67000 nM, read-out: Agg1 %) worked out at 50%. The inhibition at […] in experiment [2] (@ 2500 nM) worked out at 55%.

Regarding `O=C(COc1ccccc1)NC(c1ccc(-c2csnn2)cc1)c1cc(Cl)c2cccnc2c1O` (stereo not drawn) [Example 147, N-{(5-chloro-8-hydroxyquinolin-7-yl)[4-(1,2,3-thiadiazol-4-yl)phenyl]methyl}-2-phenoxyacetamide], the pIC50 in experiment [1] was 5.33; in experiment [2] (read-out: Agg2 IC50) it was 5.97; in experiment [2] (setting [3]), 5.97.

On to `O=C(COc1ccccc1)NC(c1ccccc1)c1cc(Cl)c2ccccc2c1O` (stereo not drawn) [N-[(4-chloro-1-hydroxy-2-naphthyl)(phenyl)methyl]-2-phenoxyacetamide], for which the pIC50 in experiment [1] was under 4.66; in experiment [2] (read-out: Agg2 IC50), under 4.17. For the same compound, the “Agg-2 FRET Median PCT INHIB” value in experiment [2] was 31%.

Consider `O=C(COc1ccccc1)NC(CCc1ccccc1)c1cc(Cl)c2cccnc2c1O` (stereo not drawn) [N-[1-(5-chloro-8-hydroxyquinolin-7-yl)-3-phenylpropyl]-2-phenoxyacetamide], for which the inhibition at 22 µM in experiment [1] (read-out: Agg1 %) is 56%. Moreover, the pIC50 in experiment [2] (read-out: Agg2 IC50) was 5.77.

For `O=C(O)Cc1cccc(C(NC(=O)COc2ccccc2)c2cc(Cl)c3cccnc3c2O)c1` (stereo not drawn) [Example 208, (3-{(5-chloro-8-hydroxyquinolin-7-yl)[(phenoxyacetyl)amino]methyl}phenyl)acetic acid], the inhibition at […] in experiment [1] (@ 2500 nM, read-out: Agg1 %) was determined as 37%. The pIC50 in experiment [2] (read-out: Agg2 IC50) and in experiment [2] (setting [3]) was 5.35 each time.

For the compound `O=C(NC(Cc1cc(Cl)c2cccnc2c1O)c1cccc(CN2CCCC2)c1)c1ccc(-c2ccccc2)cc1` (stereo not drawn) [drawing 65], the inhibition at 200 µM in experiment [1] (read-out: Agg-1 IC50 (μM) or % Inhibition) was found to be 54%. Also, the inhibition at 50 µM in experiment [2] (read-out: Agg-2 IC50 (μM) or % Inhibition) amounted to 50%.

Regarding `O=C(COc1ccc(Br)cc1)NC(c1ccccc1Cl)c1cc(Cl)c2cccnc2c1O` (stereo not drawn) [Example 220, 2-(4-bromophenoxy)-N-[(5-chloro-8-hydroxyquinolin-7-yl)(2-chlorophenyl)methyl]acetamide], the values for the negative-log IC50 (pIC50) in experiment [1] and in experiment [2] (read-out: Agg2 IC50) were 4.17 to 4.66 and 5.62, respectively.

`O=C(NC(Cc1ccccc1)c1cc(Cl)c2cccnc2c1O)OCc1ccccc1` (stereo not drawn) [benzyl [1-(5-chloro-8-hydroxyquinolin-7-yl)-2-phenylethyl]carbamate]: the pIC50 in experiment [1] is under 4.17; in experiment [2] (read-out: Agg2 IC50), under 4.55.

Take `O=C(CN1CCC(c2ccccc2)CC1)NC(c1ccccc1)c1cc(Cl)c2cccnc2c1O` (stereo not drawn) [N-[(5-chloro-8-hydroxyquinolin-7-yl)(phenyl)methyl]-2-(4-phenylpiperidin-1-yl)acetamide]: the negative-log IC50 (pIC50) in experiment [1] was about 4.96; in experiment [2] (read-out: Agg2 IC50), about 5.43. The “Agg-2 FRET Median PCT INHIB” value in experiment [2] worked out at 57%.

Regarding `O=C(NC(Cc1cc(Cl)c2cccnc2c1O)c1cccc(CN2CCCC2)c1)c1ccc(-c2ccccc2)cc1` (stereo not drawn) [drawing 58], the IC50 (commonly the concentration that gives 50% inhibition) in experiment [1] (IC50, read-out: Agg-1 IC50 (μM) or % Inhibition) came out at 5.9 µM; in experiment [2] (IC50, read-out: Agg-2 IC50 (μM) or % Inhibition) it was 3.4 µM.

Regarding `COc1ccc(Oc2cccc(C(NC(=O)COc3ccccc3)c3cc(Cl)c4cccnc4c3O)c2)cc1` (stereo not drawn) [Example 128, N-{(5-chloro-8-hydroxyquinolin-7-yl)[3-(4-methoxyphenoxy)phenyl]methyl}-2-phenoxyacetamide], the inhibition at 7.4 µM in experiment [1] (@ 7400 nM, read-out: Agg1 %) was found to be 57%. Besides, the pIC50 in experiment [2] (read-out: Agg2 IC50) is 5.96.

For `CCOC(=O)Cc1cccc(C(NC(=O)COc2ccccc2)c2cc(Cl)c3cccnc3c2O)c1` (stereo not drawn) [Example 127, ethyl(3-{(5-chloro-8-hydroxyquinolin-7-yl)[(phenoxyacetyl)amino]methyl}phenyl)acetate], the inhibition at 22 µM in experiment [1] (read-out: Agg1 %) amounted to 41%. Besides, the inhibition at 33 µM in experiment [2] (@ 33000 nM) came to 50%. Also, in experiment [2] (setting [3]), the negative logarithm of the IC50 (pIC50) is 5.84.

`O=C(COc1ccccc1)NC(c1ccc(-n2cccn2)cc1)c1cc(Cl)c2cccnc2c1O` (stereo not drawn) [Example 145, N-{(5-chloro-8-hydroxyquinolin-7-yl)[4-(1H-pyrazol-1-yl)phenyl]methyl}-2-phenoxyacetamide]: the negative-log IC50 (pIC50) is 5.24 in experiment [1] and 5.92 in experiment [2] (read-out: Agg2 IC50).

With `O=C(CNCc1ccc2c(c1)OCO2)NC(c1ccccc1Cl)c1cc(Cl)c2cccnc2c1O` (stereo not drawn) [Example 232, N2-(1,3-benzodioxol-5-ylmethyl)-N-[(5-chloro-8-hydroxyquinolin-7-yl)(2-chlorophenyl)methyl]glycinamide], the negative logarithm of the IC50 (pIC50) in experiment [1] was 4.86; in experiment [2] (read-out: Agg2 IC50), 5.74.

`C/C=C/C(NC(=O)COc1ccccc1)c1cc(Cl)c2cccnc2c1O` (stereo not drawn) [Example 187, N-[(2E)-1-(5-chloro-8-hydroxyquinolin-7-yl)but-2-en-1-yl]-2-phenoxyacetamide]: the inhibition at 0.8 µM in experiment [1] (read-out: Agg1 %) came to 40%. The pIC50 in experiment [2] (read-out: Agg2 IC50) and in experiment [2] (setting [3]) was 5.60 in each case.

On to `O=C(COc1ccc(Br)cc1)NC(c1ccccc1)c1cc(Cl)c2cccnc2c1O` (stereo not drawn) [Example 209, 2-(4-bromophenoxy)-N-[(5-chloro-8-hydroxyquinolin-7-yl)(phenyl)methyl]acetamide], for which the inhibition at […] in experiment [1] (@ 2500 nM, read-out: Agg1 %) was determined as 44%. The pIC50 in experiment [2] (read-out: Agg2 IC50) is 4.74.

With `COc1ccc(C(NC(=O)Cc2ccccc2)c2cc(Cl)c3cccnc3c2O)cc1OCc1ccccc1` (stereo not drawn) [N-[[3-(benzyloxy)-4-methoxyphenyl](5-chloro-8-hydroxyquinolin-7-yl)methyl]-2-phenylacetamide], the inhibition at […] is 36% in experiment [1] (@ 1200 nM, read-out: Agg1 %) and 47% in experiment [2] (@ 1200 nM).

Regarding `Cc1ccc(Oc2cccc(C(NC(=O)COc3ccccc3)c3cc(Cl)c4cccnc4c3O)c2)cc1` (stereo not drawn) [Example 130, N-{(5-chloro-8-hydroxyquinolin-7-yl)[3-(4-methylphenoxy)phenyl]methyl}-2-phenoxyacetamide], the inhibition at 22 µM in experiment [1] (read-out: Agg1 %) worked out at 52%. The inhibition at 7.4 µM in experiment [2] (@ 7400 nM) was 58%.

For the compound `O=C(COc1ccccc1)NC(c1ccc(-c2ccccc2)o1)c1cc(Cl)c2cccnc2c1O` (stereo not drawn) [N-[(5-chloro-8-hydroxyquinolin-7-yl)(5-phenyl-2-furyl)methyl]-2-phenoxyacetamide], the results for the pIC50 in experiment [1] and in experiment [2] (read-out: Agg2 IC50) were under 4.66 and under 5.30, respectively. Besides, the “Agg-2 FRET Median PCT INHIB” value in experiment [2] was 54%.

For the compound `O=C(CCl)Nc1cccc(C(NC(=O)COc2ccccc2)c2cc(Cl)c3cccnc3c2O)c1` (stereo not drawn) [Example 205, 2-chloro-N-(3-{(5-chloro-8-hydroxyquinolin-7-yl)[(phenoxyacetyl)amino]methyl}phenyl)acetamide], the pIC50 was about 4.70 in experiment [1] and 5.83 in experiment [2] (read-out: Agg2 IC50).
